From PubChem BioAssay AID1963960 (Molecular Pharmacology Branch, DTP, NCI, 2024)

Tested on: MDA-MB-468 spheroids with HUVEC/MSC, viability
Assay: Anticancer human tumor MDA-MB-468 cell line growth inhibition [PI3K];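 also: spheroids exposed to agents for seven days before readout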;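 as to viability, T/C: 100% = DMSO vehicle control viability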
Details: for viability, T/C: stronger effect = lower value
Description: Combinatorial screen of targeted agents with the PI3K inhibitors inavolisib, alpelisib, duvelisib, and copanlisib in multi-cell type tumor spheroids
A high-throughput screen of multi-cell type tumor spheroids was designed to identify active combinations of targeted small molecules and PI3K pathway inhibitors. Complex spheroids include a stromal component modeled by human endothelial cells (HUVEC) and fibroblasts modeled by human mesenchymal stem cells (MSCs). The concentration ranges selected for each drug and investigational agent were based upon clinically achievable concentrations if the clinical Cmax of the agent was known.
Compounds. The drugs and investigational agents: inavolisib (NSC800729), alpelisib (NSC765974), duvelisib (NSC772469), copanlisib (NSC816437), ipatasertib (NSC767898), afuresertib (NSC778305), talazoparib (NSC767125), sapanisertib (NSC764658), selumetinib (NSC741078), tovorafenib (DAY101, NSC766906), vemurafenib (NSC761431), ravoxertinib (NSC781343), sotorasib (NSC818433), MRTX1133 (NSC 836407), abemaciclib (NSC 768073), palbociclib (NSC758247), venetoclax (NSC 766270), SY5609 (NSC837396), enzalutamide (NSC755605), and darolutamide (NSC825331), were obtained from the National Cancer Institute (NCI) Developmental Therapeutics Program Chemical Repository. The FDA-approved anticancer drug set is available from the NCI Developmental Therapeutics Program. […] The stock solutions were prepared in dimethyl sulfoxide (DMSO, Sigma-Aldrich, St. Louis, MO, cat. D2650) at 800-fold the tested concentration and stored at -70 degrees C prior to their use. All drugs and investigational agents were tested over a range starting from a high concentration at or near the clinical Cmax and decreasing in half-log increments. If the clinical Cmax for an agent had not been determined, the highest concentration tested was 10 microM.
Cell Culture. All cells were maintained in an incubator at 37 degrees C and 5% CO2 with 95% humidity. The PDC lines were cultured according to standard operating procedures established by the NCI PDMR (https://pdmr.cancer.gov/sops/default.htm). All PDCs were thawed and cultured in Matrigel-coated flasks prepared with a working solution of 1X Ham's F-12 nutrient mix, without supplementation (Invitrogen, Waltham, MA, cat. 11765054), 100 U/mL penicillin-streptomycin (Invitrogen, cat. 15140122), and 2.5% Matrigel (Corning Inc., Corning, NY, cat. 354248) for the first three passages. The 354836-022-R-J1-PDC, 475296-252-R-J1-PDC, and 997726-040-R-J2-PDC lines were cultured in 6A media, which includes advanced DMEM/F-12 (Thermo Fisher Scientific, cat. 12634028), 10 mM HEPES (Thermo Fisher Scientific, cat. 15630080), 1X GlutaMAX supplement (Thermo Fisher Scientific, cat. 35050061), 0.1 mg/mL primocin (InvivoGen, San Diego, CA, cat. ant-pm-2), 10% defined fetal bovine serum, heat inactivated (HyClone Laboratories Inc., Logan, UT, cat. SH30070.03HI), 50% L-WRN conditioned media (ATCC, cat. CRL-3276), 1.25 mM N-Acetyl-L-cysteine (Sigma-Aldrich, cat. A9165), 10 mM nicotinamide (Sigma-Aldrich, cat. N0636), 1X B-27 supplement (Thermo Fisher Scientific, cat. 17504044), 1X N-2 supplement (Thermo Fisher Scientific, cat. 17502048), and 10 microM Y-27632 dihydrochloride (Tocris Bioscience, Bristol, United Kingdom, cat. 1254). The 624824-186-R-J2-PDC line was cultured in 6C/Colon 1B media, which includes all 6A media components plus 50 ng/mL human EGF recombinant protein (Thermo Fisher Scientific, cat. PHG0311). […]

For `CCCS(=O)(=O)Nc1ccc(F)c(C(=O)c2c[nH]c3ncc(-c4ccc(Cl)cc4)cc23)c1F`, the viability, T/C (compound 0.316 µM) was 107% [middle of 4 runs], the viability, T/C (compound 1 µM) was 97.7% [middle of 4 runs] and the viability, T/C (compound 3.16 µM) was 78.9% [middle of 4 runs]. The viability, T/C (compound 10 µM) was 16.4% [middle of 4 runs] and the IC50 (curve of compound) was 5.5 µM [middle of 4 runs].
`Cn1cnc2c(F)c(Nc3ccc(Br)cc3Cl)c(C(=O)NOCCO)cc21` + CC(Nc1ccc2c(c1)OCCn1cc(N3C(=O)OCC3C(F)F)nc1-2)C(N)=O showed an IC50 (curve of first compound, second compound 0.00316 µM) of over 3 µM, an IC50 (curve of first compound, second compound 0.01 µM) of over 3 µM and an IC50 (curve of first compound, second compound 0.0316 µM) of over 3 µM. The IC50 (curve of first compound, second compound 0.1 µM) was over 3 µM, the IC50 (curve of first compound, second compound 0.316 µM) was over 3 µM and the IC50 (curve of first compound, second compound 1 µM) was 1.52 µM. It also gave a viability, T/C (second compound 0.00316 µM, first compound 0.00949 µM) of 83.2%, a viability, T/C (second compound 0.00316 µM, first compound 0.03 µM) of 78.1% and a viability, T/C (second compound 0.00316 µM, first compound 0.0949 µM) of 81.8%. It also gave a viability, T/C (second compound 0.00316 µM, first compound 0.3 µM) of 92.6%, a viability, T/C (second compound 0.00316 µM, first compound 0.949 µM) of 87.3% and a viability, T/C (second compound 0.00316 µM, first compound 3 µM) of 56.7%. It also gave a viability, T/C (second compound 0.01 µM, first compound 0.00949 µM) of 80%, a viability, T/C (second compound 0.01 µM, first compound 0.03 µM) of 88.9% and a viability, T/C (second compound 0.01 µM, first compound 0.0949 µM) of 79.9%. The viability, T/C (second compound 0.01 µM, first compound 0.3 µM) was 90.4%, the viability, T/C (second compound 0.01 µM, first compound 0.949 µM) was 73.9% and the viability, T/C (second compound 0.01 µM, first compound 3 µM) was 61.9%. For the same molecule, the viability, T/C (second compound 0.0316 µM, first compound 0.00949 µM) was 103%, the viability, T/C (second compound 0.0316 µM, first compound 0.03 µM) was 86.4% and the viability, T/C (second compound 0.0316 µM, first compound 0.0949 µM) was 86.3%. For the same molecule, the viability, T/C (second compound 0.0316 µM, first compound 0.3 µM) was 83%, the viability, T/C (second compound 0.0316 µM, first compound 0.949 µM) was 63.9% and the viability, T/C (second compound 0.0316 µM, first compound 3 µM) was 58.6%. The viability, T/C (second compound 0.1 µM, first compound 0.00949 µM) was 91.3%, the viability, T/C (second compound 0.1 µM, first compound 0.03 µM) was 73.5% and the viability, T/C (second compound 0.1 µM, first compound 0.0949 µM) was 70.5%. For the same molecule, the viability, T/C (second compound 0.1 µM, first compound 0.3 µM) was 77.5%, the viability, T/C (second compound 0.1 µM, first compound 0.949 µM) was 66.7% and the viability, T/C (second compound 0.1 µM, first compound 3 µM) was 48.9%. For the same molecule, the viability, T/C (second compound 0.316 µM, first compound 0.00949 µM) was 81.3%, the viability, T/C (second compound 0.316 µM, first compound 0.03 µM) was 78.6% and the viability, T/C (second compound 0.316 µM, first compound 0.0949 µM) was 64.4%. The viability, T/C (second compound 0.316 µM, first compound 0.3 µM) was 67%, the viability, T/C (second compound 0.316 µM, first compound 0.949 µM) was 64.1% and the viability, T/C (second compound 0.316 µM, first compound 3 µM) was 48.9%. The viability, T/C (second compound 1 µM, first compound 0.00949 µM) was 79.4%, the viability, T/C (second compound 1 µM, first compound 0.03 µM) was 63.7% and the viability, T/C (second compound 1 µM, first compound 0.0949 µM) was 77%. It also gave a viability, T/C (second compound 1 µM, first compound 0.3 µM) of 69.7%, a viability, T/C (second compound 1 µM, first compound 0.949 µM) of 55.1% and a viability, T/C (second compound 1 µM, first compound 3 µM) of 39%.
